Assay results taken from PubChem BioAssay AID463203 (Broad Institute, 2010).
The source made the active and inactive calls.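 Rule for the calls: active = more than half of replicate measurements showing over 20% loss of kinase signal relative to plate controls; inconclusive = some but at most half of replicates over 20% loss; inactive = no replicate over 20% signal loss.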

Molecular target: Glycogen synthase kinase-3 alpha (Homo sapiens) (UniProt P49840)
Test: concentration-response blocking of human GSK3A – biochemical, luminescence, cell-free homogeneous, retest, dose response (AID 463203)
Details: GSK-3 alpha enzyme, ADP-Glo luminescence, 60 min

Chain of Glycogen synthase kinase-3 alpha (Homo sapiens) (P49840 whole entry, looked up): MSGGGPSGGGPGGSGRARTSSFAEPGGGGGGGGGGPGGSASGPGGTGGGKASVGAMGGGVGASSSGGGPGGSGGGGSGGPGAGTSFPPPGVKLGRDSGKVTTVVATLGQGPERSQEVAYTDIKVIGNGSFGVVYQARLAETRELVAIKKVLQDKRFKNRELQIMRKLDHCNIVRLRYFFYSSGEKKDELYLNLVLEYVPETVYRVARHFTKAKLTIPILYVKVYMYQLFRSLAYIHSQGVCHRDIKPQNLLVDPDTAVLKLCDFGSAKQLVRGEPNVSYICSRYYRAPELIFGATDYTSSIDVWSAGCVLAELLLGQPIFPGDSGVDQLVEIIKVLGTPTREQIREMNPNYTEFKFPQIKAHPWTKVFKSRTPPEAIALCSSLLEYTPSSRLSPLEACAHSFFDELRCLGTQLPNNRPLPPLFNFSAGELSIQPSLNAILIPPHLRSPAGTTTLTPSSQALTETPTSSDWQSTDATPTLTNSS

Row | Structure (SMILES) | AC50
1 | Cc1c(C(=O)N/N=C/c2cccnc2)nnn1-c1nonc1N | > 30 µM (inactive)
2 | C/C(=N\O)C(=O)NCCCn1ccnc1 | > 30 µM (inactive)
3 | COc1ccc(OC)c(/C=N/NC(=O)c2nnn(-c3nonc3N)c2-c2cccs2)c1 | 1.35 µM
4 | Cc1csc(NC(=O)C2CC(=O)N(c3ccc(C)c(C)c3)C2)n1 (stereo not given) | > 30 µM (inactive)
5 | Nc1nonc1-n1nnc(C(=O)N/N=C/c2ccc(F)cc2)c1-c1cccs1 | 1.05 µM
6 | COc1ccc(-n2c(O)c(C=NCCCn3ccnc3)c(=O)[nH]c2=O)cc1 | 5.43 µM
7 | O=[N+]([O-])c1ccc(-c2nnc(-c3ccccc3)c(NCCCO)n2)cc1 | > 30 µM (inactive)
8 | CCOc1ccccc1-n1c(O)c(C=NCCCn2ccnc2)c(=O)[nH]c1=O | 20.5 µM
9 | Cc1ccc(/C=N/NC(=O)c2nnn(-c3nonc3N)c2-c2cccs2)cc1 | 1.04 µM
10 | CNc1ccc(/C=C/C(=O)c2ccc3c(c2)OCCO3)cc1[N+](=O)[O-] | > 30 µM (inactive)
11 | CCOC(=O)CSc1ncnc2c(C(=O)OCC)c3n(c12)CCC3 | > 30 µM (inactive)
12 | CC(C)(C)C(=O)/C=c1\[nH]c(=O)/c(=C\c2ccc(F)cc2)s1 | 11.9 µM
13 | COc1ccccc1OC(C)C(=O)N1CCC(Cc2ccccc2)CC1 (stereo not given) | > 30 µM (inactive)
14 | Cc1nc2c(ccc3c2ccc2nc(C)sc23)s1 | > 30 µM (inactive)
15 | Cc1nc2ncnn2c(C)c1Cc1c(Cl)cccc1Cl | > 30 µM (inactive)
16 | COC(=O)Nc1nnc(COc2ccccc2)s1 | > 30 µM (inactive)
17 | COc1ccc(-n2c(O)c(C=NC3CC3)c(=O)[nH]c2=O)cc1 | 24.9 µM
18 | CCc1c(C)c(C#N)c2nc3ccccc3n2c1NC | > 30 µM (inactive)
19 | Nc1ccc2nc(C3CCCCC3)[nH]c2c1 | > 30 µM (inactive)
20 | Cc1ccc(/C=N/NC(=O)c2nnn(-c3nonc3N)c2CN(C)C)s1 | > 30 µM (inactive)
21 | COc1cc2c(cc1OC)C(C)N(C(=O)Cn1ncc3c1-c1cc(C)ccc1OC3)CC2 (stereo not given) | > 30 µM (inactive)
22 | CCOC(=O)c1c(NC(=O)CSc2nnc(CNc3ccc(C)cc3C)o2)sc(C)c1C | > 30 µM (inactive)
23 | CCCNC(=O)NC(C)C12CC3CC(CC(C3)C1)C2 (stereo not given) | > 30 µM (inactive)
24 | Fc1ccc(Nc2nc(-c3ccncc3)nc3ccccc23)cc1F | > 30 µM (inactive)
25 | c1ccc(Cn2nc(-c3ccccc3)nc2-c2ccccc2)cc1 | > 30 µM (inactive)
26 | CC(C)c1[nH]nc2c1C(c1ccco1)C(C#N)=C(N)O2 (stereo not given) | > 30 µM (inactive)
27 | COc1ccccc1Nc1nc2c(s1)CCC2 | > 30 µM (inactive)

Row | Structure (SMILES) | AC50
28 | COc1ccc(-c2csc3nc(C)nc(N4CCC(C)CC4)c23)cc1OC | > 30 µM (inactive)
29 | COc1ccccc1-c1noc(CSc2nc(N)cc(=O)[nH]2)n1 | > 30 µM (inactive)
30 | O=C(O)c1cc(NC(=O)c2ccccc2[N+](=O)[O-])ccc1O | > 30 µM (inactive)
31 | Oc1ccc(/C=N/NP(=S)(c2ccccc2)c2ccccc2)cc1O | > 30 µM (inactive)
32 | CCOC(=O)c1c(NC(=S)N2CCOCC2)sc2c1CCN(C(=O)OCC)C2 | > 30 µM (inactive)
33 | O=C(NCc1ccccc1)c1ccc2c(=O)[nH]c3c(C(=O)NCC4CCCO4)sc(=S)n3c2c1 (stereo not given) | 14 µM
34 | COc1ccc(C(=O)Nc2nncs2)cc1S(=O)(=O)N1CC(c2ccccc2)CC1=O (stereo not given) | > 30 µM (inactive)
35 | CC1=C(C(=O)OC2CCCCC2)C(c2cccs2)n2c(nc3ccccc32)N1 (stereo not given) | > 30 µM (inactive)
36 | CCC(CO)Nc1ncc([N+](=O)[O-])cc1C#N (stereo not given) | > 30 µM (inactive)
37 | O=S(=O)(c1cccs1)N1CCN(c2ccnc3cc(Cl)ccc23)CC1 | > 30 µM (inactive)
38 | COc1cccc(NC(=O)c2nnn(Cc3ccc(Br)cc3F)c2N)c1 | 11.1 µM
39 | Cc1nc(NCC2CCCO2)nc2c1C(=O)CC(C)C2 (stereo not given) | > 30 µM (inactive)
40 | O=C(CSc1ccc2nnc(-c3ccccn3)n2n1)N1CCOCC1 | > 30 µM (inactive)
41 | O=C(c1ccco1)N(Cc1ccc([N+](=O)[O-])cc1)c1ccc(Br)cc1 | > 30 µM (inactive)
42 | O=C(O)c1ccc(N=Cc2c(O)ccc3oc4c(c23)CCCC4)cc1 | > 30 µM (inactive)
43 | COc1ccccc1NC(=O)c1cc2ccc(O)cc2o/c1=N\O | > 30 µM (inactive)
44 | CCN(C(=O)CN1CCCC(C)C1)c1c(N)n(Cc2ccccc2)c(=O)[nH]c1=O (stereo not given) | > 30 µM (inactive)
45 | COC(=O)c1c(NC(=O)Cc2cccs2)sc2c1CCCC2 | > 30 µM (inactive)
46 | Nc1ccccc1-c1nc2ccccc2[nH]1 | > 30 µM (inactive)
47 | Cc1ccnc(NC(=O)CCC(=O)N(CC(=O)NCc2ccccc2)Cc2ccccc2)c1 | 15.1 µM
48 | CCOc1cc2c(C#N)c(N3CCCC3)nc(N)c2c(N)n1 | > 30 µM (inactive)
49 | Cc1ccc(-c2c3c(nc4sc(C(N)=O)c(N)c24)CCC3)cc1 | 5.39 µM
50 | O=c1[nH]c(=O)n(C2CCCCCC2)c(O)c1C=NCCCN1CCOCC1 | 14.4 µM
51 | NC(=O)c1c(NC(=O)CN2C(=O)NC(Cc3ccccc3)C2=O)sc2c1CCC2 (stereo not given) | 20.3 µM
52 | COCCCNc1c2c(nc3nnnn13)CCCC2 | > 30 µM (inactive)
53 | CC(=O)c1cccc(NC(=S)NC(=O)CC(C)C)c1 | > 30 µM (inactive)
54 | O=c1cc(-c2ccccc2Cl)oc2c(NS(=O)(=O)c3cc(Cl)cc(Cl)c3O)ccc(O)c12 | > 30 µM (inactive)

Row | Structure (SMILES) | AC50
55 | O=C(N/N=C/c1cccnc1)c1cc2c(ccc3ccccc32)o1 | > 30 µM (inactive)
56 | Cc1ccc2nc(-c3ccccc3N)[nH]c2c1 | > 30 µM (inactive)
57 | CCOc1cc(/C=C2\SC(N3CCCCC3)=NC2=O)ccc1O | > 30 µM (inactive)
58 | CCN1C(=O)c2ccc(C(=O)NCc3ccc4c(c3)OCO4)cc2C1=O | > 30 µM (inactive)
59 | CCCc1nnc(NC(=O)CCN2C(=O)c3ccccc3C2=O)s1 | > 30 µM (inactive)
60 | COc1cccc(/C=N/NC(=O)c2nnn(-c3nonc3N)c2-c2cccs2)c1 | 0.899 µM
61 | CC(C)NC(=O)Nc1ccc(Br)cc1Cl | > 30 µM (inactive)
62 | CCCC(=O)Nc1nn(CC)c2nc3ccc(C)cc3cc12 | > 30 µM (inactive)
63 | COc1cc2c(cc1OC)-c1nnc(C)n1C1(CCCC1)C2 | 30.2 µM
64 | O=C(O)c1[nH]c2ccc([N+](=O)[O-])cc2c1-c1ccccc1 | 11 µM
65 | CSc1ccc(C2C3(C#N)C(N)=NC4(OCCO4)C23C#N)cc1 (stereo not given) | > 30 µM (inactive)
66 | O=C(COC(=O)c1cccc(S(=O)(=O)N2CCOCC2)c1)Nc1ccc(Cl)cn1 | 7.3 µM
67 | COC(=O)[C@@H]1[C@H](CCc2ccccc2)NC(=O)N(Cc2ccccc2)[C@@H]1C | > 30 µM (inactive)
68 | O=[N+]([O-])c1ccc(N/N=C/c2cn(Cc3ccc(F)cc3)c3ccccc23)nc1 | > 30 µM (inactive)
69 | O=C(Oc1cccc(NC(=O)c2ccco2)c1)c1cccc(S(=O)(=O)N2CCCCC2)c1 | > 30 µM (inactive)
70 | Cc1cc(Nc2ccc(C(=O)O)cc2)nc(N)n1 | > 30 µM (inactive)
71 | CC1CCCCC12NC(=O)N(CC(=O)Nc1sc3c(c1C(N)=O)CCC3)C2=O (stereo not given) | 11.4 µM
72 | S=C(NCc1ccccc1)NCc1ccc2c(c1)OCO2 | 14.2 µM
73 | COc1ccc2[nH]c(=O)c3c(c2c1)OC(C)(C)C=C3 | 10.4 µM
74 | O=Cc1cn(-c2ccccc2)nc1-c1ccc2c(c1)OCCO2 | > 30 µM (inactive)
75 | Cc1ccc(S(=O)(=O)N(CC(O)CN2CCCC2)c2ccccc2)cc1 (stereo not given) | > 30 µM (inactive)
76 | COc1ccc(C(=O)O/N=C(\N)c2ccccn2)c(OC)c1 | > 30 µM (inactive)
77 | C/C(CC(=O)Nc1ccc(Cl)cc1Cl)=N\NC(=O)C(=O)N1CCCC1 | > 30 µM (inactive)
78 | O=c1cc(-c2ccco2)oc2c1ccc1ccccc12 | 7.17 µM
79 | COc1cc(/C=N/NC(=O)c2cccc(C(=O)N/N=C/c3ccc(O)c(OC)c3)n2)ccc1O | > 30 µM (inactive)
80 | COC(=O)c1c(C)c(OC(=O)c2c(C)cc(O)c(C=O)c2O)cc(C)c1O | > 30 µM (inactive)
81 | CCCN(CCC)Cc1c(C(=O)N/N=C/C(C)=C\c2ccco2)nnn1-c1nonc1N | > 30 µM (inactive)

Row | Structure (SMILES) | AC50
82 | Cc1nnc(SCC(=O)Nc2ccc(Br)cn2)[nH]c1=O | 13.7 µM
83 | CC(C)(C)c1cc(-c2nc(N)nc(N)n2)c(O)c(C(C)(C)C)c1 | > 30 µM (inactive)
84 | NNC(=O)/C(=N/Nc1ccccc1)S(=O)(=O)c1ccc(Cl)cc1 | > 30 µM (inactive)
85 | COc1ccc(-c2nc(N)n[nH]2)cc1 | > 30 µM (inactive)
86 | Nc1nc(NCCO)nc(N2CCCCCC2)c1[N+](=O)[O-] | 18.4 µM
87 | Cc1csc(NC(=O)C2CCCN2C(=O)OCC(C)C)n1 (stereo not given) | > 30 µM (inactive)
88 | COc1ccc(/C=N/NC(=O)CSCc2ccc([N+](=O)[O-])cc2)cc1OC | > 30 µM (inactive)
89 | CCCNC(=O)OCCC12CC3CC(CC(C3)C1)C2 | > 30 µM (inactive)
90 | O=C(c1ccco1)N(Cc1ccc([N+](=O)[O-])cc1)c1ccc(Cl)cc1 | > 30 µM (inactive)
91 | CCOC(=O)c1c(NC(=O)Cc2cccs2)sc2c1CCCC2 | > 30 µM (inactive)
92 | O=C(COC(=O)Cc1ccsc1)Nc1ccc(Cl)cn1 | 28.4 µM
93 | CCOc1cccc(-c2c(C(=O)N/N=C/c3sccc3C)nnn2-c2nonc2N)c1 | > 30 µM (inactive)
94 | Cc1cc(=O)[nH]c2c(C)cc(S(=O)(=O)Nc3ccc(O)cc3)cc12 | > 30 µM (inactive)
95 | CCCC(=O)NC(=S)Nc1cccc(C(C)=O)c1 | > 30 µM (inactive)
96 | CCCc1cc(C(N)=O)c(NC(=O)C2CCCO2)s1 (stereo not given) | > 30 µM (inactive)
97 | Cc1cc(C)nc(NC(=O)c2ccc(Br)s2)n1 | > 30 µM (inactive)
98 | Nc1ncc(-c2ccccc2)c(-c2ccc(OCc3ccccc3)cc2O)n1 | > 30 µM (inactive)
99 | COc1ccc(C(=O)NCC(=O)N/N=C/C=C/c2ccccc2)cc1OC | > 30 µM (inactive)
100 | Oc1ccc2c(c1)oc1cc(O)ccc12 | 12 µM
101 | O=C(NCCCCCCNC(=O)OCCO)OCCO | > 30 µM (inactive)
102 | CCC(=O)c1ccc(OCC(O)CN2CCCCC2)cc1 (stereo not given) | > 30 µM (inactive)
103 | Nc1nc(Nc2ccc(Cl)cc2)n[nH]1 | > 30 µM (inactive)
104 | O=C(O)CCCNc1ccc([N+](=O)[O-])c(NCCCC(=O)O)n1 | > 30 µM (inactive)
105 | Cc1ccc(CNc2nc(N)c([N+](=O)[O-])c(NCc3ccccc3)n2)cc1 | > 30 µM (inactive)
